What follows are compounds tested against T1, MAGL (Homo sapiens, UniProt Q99685) (assay: 2-AG assay (MAGL inhibitory activity, hydrolysis of 2-arachidonoylglycerol to arachidonic acid followed by mass spectrometry)). Settings: 8 μM 2-arachidonoylglycerol, 15 min pre-incubation, 30 min incubation at RT, RapidFire MS readout.
T1 sequence (Q99685 1-303): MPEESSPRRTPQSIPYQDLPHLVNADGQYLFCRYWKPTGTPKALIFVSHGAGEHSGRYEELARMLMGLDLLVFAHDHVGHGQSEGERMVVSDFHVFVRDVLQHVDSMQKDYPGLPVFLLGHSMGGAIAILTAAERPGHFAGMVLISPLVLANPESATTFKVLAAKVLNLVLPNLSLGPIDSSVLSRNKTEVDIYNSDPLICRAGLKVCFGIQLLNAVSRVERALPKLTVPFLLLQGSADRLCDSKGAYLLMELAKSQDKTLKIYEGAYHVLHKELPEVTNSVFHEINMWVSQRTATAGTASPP
Format: biochemical
Outline: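 Arachidonic acid released from 8 μM 2-arachidonoylglycerol was quantified by online SPE triple-quadrupole MS (negative ESI, 303.1→259.1), normalised to d8-arachidonic acid internal standard. Reaction ran 30 min at RT after 15 min RT compound pre-incubation with […] MAGL in TRIS/EDTA/Tween-20 buffer, 2.5% DMSO.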

Point of comparison: `O=C(N1CC2(CC(n3cnc(C4CC4)n3)C2)C1)N1CC2(C1)CN(S(=O)(=O)NCC1(C(F)(F)F)CC1)C2` [Example 247, 6-[6-(3-cyclopropyl-1,2,4-triazol-1-yl)-2-azaspiro[3.3]heptane-2-carbonyl]-N-[[1-(trifluoromethyl)cyclopropyl]methyl]-2,6-diazaspiro[3.3]heptane-2-sulfonamide], IC50 12.2 nM. Against it:
- O=C(N1CC2(CC(n3cnc(C4CC4)n3)C2)C1)N1CC2(C1)CN(S(=O)(=O)CC1CCCCC1)C2 [Example 244, [2-(cyclohexylmethylsulfonyl)-2,6-diazaspiro[3.3]heptan-6-yl]-[6-(3-cyclopropyl-1,2,4-triazol-1-yl)-2-azaspiro[3.3]heptan-2-yl]methanone] — within 1.5-fold, 9 nM
- COc1cccc(S(=O)(=O)N2CC3(CN(C(=O)N4CC5(CC(n6cnc(C7CC7)n6)C5)C4)C3)C2)c1 [Example 245, [6-(3-cyclopropyl-1,2,4-triazol-1-yl)-2-azaspiro[3.3]heptan-2-yl]-[2-(3-methoxyphenyl)sulfonyl-2,6-diazaspiro[3.3]heptan-6-yl]methanone] — within 1.5-fold, 9.9 nM
- O=C(N1CC(CNS(=O)(=O)c2cccc(C(F)(F)F)c2)C1)N1CC2(CC(n3cnc(C4CC4)n3)C2)C1 [Example 246, N-[[1-[6-(3-cyclopropyl-1,2,4-triazol-1-yl)-2-azaspiro[3.3]heptane-2-carbonyl]azetidin-3-yl]methyl]-3-(trifluoromethyl)benzenesul fonamide] — the same, 12.2 nM
- O=C(N1CC(Oc2ccc(C(F)(F)F)nn2)C1)N1CC2(CC(n3cnc(C4CC4)n3)C2)C1 [Example 248, [6-(3-cyclopropyl-1,2,4-triazol-1-yl)-2-azaspiro[3.3]heptan-2-yl]−[3-[6-(trifluoromethyl)pyridazin-3-yl]oxyazetidin-1-yl]methanone] — within 1.5-fold, 13.4 nM
- CC(Oc1cnn(C2CN(C(=O)N3CC4(CC(n5cnc(C6CC6)n5)C4)C3)C2)c1)C(F)(F)F (centres unmarked) [Example 249, [6-(3-cyclopropyl-1,2,4-triazol-1-yl)-2-azaspiro[3.3]heptan-2-yl]-[3-[4-(2,2,2-trifluoro-1-methyl-ethoxy)pyrazol-1-yl]azetidin-1-yl]methanone] — within 1.5-fold, 14.4 nM
- O=C(N1CC2(CC(n3cnc(C4CC4)n3)C2)C1)N1CC2(C1)CN(S(=O)(=O)c1cccc3nonc13)C2 [Example 250, [2-(2,1,3-benzoxadiazol-4-ylsulfonyl)-2,6-diazaspiro[3.3]heptan-6-yl]-[6-(3-cyclopropyl-1,2,4-triazol-1-yl)-2-azaspiro[3.3]heptan-2-yl]methanone] — within 1.5-fold, 15.1 nM
- COc1ccccc1S(=O)(=O)N1CC2(CN(C(=O)N3CC4(CC(n5cnc(C6CC6)n5)C4)C3)C2)C1 [Example 251, [6-(3-cyclopropyl-1,2,4-triazol-1-yl)-2-azaspiro[3.3]heptan-2-yl]-[2-(2-methoxyphenyl)sulfonyl-2,6-diazaspiro[3.3]heptan-6-yl]methanone] — within 1.5-fold, 15.5 nM
- O=C(N1CC(c2ccc(C3(c4nnn[nH]4)CC3)cc2)C1)N1CC2(CC(n3cnc(C4CC4)n3)C2)C1 [Example 252, [6-(3-cyclopropyl-1,2,4-triazol-1-yl)-2-azaspiro[3.3]heptan-2-yl]-[3-[4-[1-(1H-tetrazol-5-yl)cyclopropyl]phenyl]azetidin-1-yl]methanone] — within 1.5-fold, 16.1 nM
- O=C(N1CCC(CNS(=O)(=O)c2ccc(C(F)(F)F)cc2)CC1)N1CC2(CC(n3cnc(C4CC4)n3)C2)C1 [Example 253] — within 1.5-fold, 16.2 nM
- O=C(N1CC(Oc2cnc(Cl)c(C3CC3)c2)C1)N1CC2(CC(n3cnc(C4CC4)n3)C2)C1 [Example 254, [3-[(6-chloro-5-cyclopropyl-3-pyridyl)oxy]azetidin-1-yl]-[6-(3-cyclopropyl-1,2,4-triazol-1-yl)-2-azaspiro[3.3]heptan-2-yl]methanone] — within 1.5-fold, 17 nM
- O=C(N1CC2(CC(n3cnc(C4CC4)n3)C2)C1)N1CC2(C1)CN(S(=O)(=O)c1ccc(C(F)(F)F)nc1)C2 [Example 255, [6-(3-cyclopropyl-1,2,4-triazol-1-yl)-2-azaspiro[3.3]heptan-2-yl]-[2-[[6-(trifluoromethyl)-3-pyridyl]sulfonyl]-2,6-diazaspiro[3.3]heptan-6-yl]methanone] — within 1.5-fold, 17.2 nM
- O=C(N1CC2(CC(n3cnc(C4CC4)n3)C2)C1)N1CC2(C1)CN(S(=O)(=O)NCc1ccc(F)cc1)C2 [Example 256, 6-[6-(3-cyclopropyl-1,2,4-triazol-1-yl)-2-azaspiro[3.3]heptane-2-carbonyl]-N-[(4-fluorophenyl)methyl]-2,6-diazaspiro[3.3]heptane-2-sulfonamide] — within 1.5-fold, 17.3 nM
- NS(=O)(=O)c1ccccc1CN1CC2(C1)CN(C(=O)N1CC3(CC(n4cnc(C5CC5)n4)C3)C1)C2 [Example 257, 2-[[2-[6-(3-cyclopropyl-1,2,4-triazol-1-yl)-2-azaspiro[3.3]heptane-2-carbonyl]-2,6-diazaspiro[3.3]heptan-6-yl]methyl] benzenesulfonamide] — within 1.5-fold, 18 nM
- O=C(N1CC2(CC(n3cnc(C4CC4)n3)C2)C1)N1CC2(CN(Cc3ncc(F)cc3F)C2)C1 [Example 258, [6-(3-cyclopropyl-1,2,4-triazol-1-yl)-2-azaspiro[3.3]heptan-2-yl]-[6-[(3,5-difluoro-2-pyridyl)methyl]-2,6-diazaspiro[3.3]heptan-2-yl]methanone] — 1.6-fold higher, 19.4 nM
- O=C(N1CCC(CNS(=O)(=O)c2ccc(OC(F)(F)F)cc2)CC1)N1CC2(CC(n3cnc(C4CC4)n3)C2)C1 [Example 259, N-[[1-[6-(3-cyclopropyl-1,2,4-triazol-1-yl)-2-azaspiro[3.3]heptane-2-carbonyl]-4-piperidyl]methyl]-4-(trifluoromethoxy) benzenesulfonamide] — 1.8-fold higher, 21.8 nM
- O=C(N1CC2(CC(n3cnc(C4CC4)n3)C2)C1)N1CC2(C1)CN(S(=O)(=O)NC1(C(F)(F)F)CC1)C2 [Example 260, 6-[6-(3-cyclopropyl-1,2,4-triazol-1-yl)-2-azaspiro[3.3]heptane-2-carbonyl]-N-[1-(trifluoromethyl)cyclopropyl]-2,6-diazaspiro[3.3]heptane-2-sulfonamide] — 1.9-fold higher, 23.1 nM
- O=C(N1CC(c2ccn(CC(F)(F)F)c(=O)c2)C1)N1CC2(CC(n3cnc(C4CC4)n3)C2)C1 [Example 261, 4-[1-[6-(3-cyclopropyl-1,2,4-triazol-1-yl)-2-azaspiro[3.3]heptane-2-carbonyl]azetidin-3-yl]-1-(2,2,2-trifluoroethyl)pyridin-2-one] — 2-fold higher, 24.2 nM
- O=C(N1CC(NCc2ccc(C(F)(F)F)cc2F)C1)N1CC2(CC(n3cnc(C4CC4)n3)C2)C1 [Example 262, [6-(3-cyclopropyl-1,2,4-triazol-1-yl)-2-azaspiro[3.3]heptan-2-yl]-[3-[[2-fluoro-4-(trifluoromethyl)phenyl]methylamino]azetidin-1-yl]methanone] — 2.1-fold higher, 25.2 nM
- O=C(N1CC2(CC(n3cnc(C4CC4)n3)C2)C1)N1CC2(C1)CN(S(=O)(=O)c1cnccc1C(F)(F)F)C2 [Example 263, [6-(3-cyclopropyl-1,2,4-triazol-1-yl)-2-azaspiro[3.3]heptan-2-yl]-[2-[[4-(trifluoromethyl)-3-pyridyl]sulfonyl]-2,6-diazaspiro[3.3]heptan-6-yl]methanone] — 2.2-fold higher, 27.2 nM
- COC(=O)c1ccccc1S(=O)(=O)N1CC2(CN(C(=O)N3CC4(CC(n5cnc(C6CC6)n5)C4)C3)C2)C1 [Example 264, methyl 2-[[6-[6-(3-cyclopropyl-1,2,4-triazol-1-yl)-2-azaspiro[3.3]heptane-2-carbonyl]-2,6-diazaspiro[3.3]heptan-2-yl]sulfonyl]benzoate] — 2.2-fold higher, 27.2 nM
- O=C(N1CC2(CC(n3cnc(C4CC4)n3)C2)C1)N1CC2(C1)CN(S(=O)(=O)Cc1ccccc1)C2 [Example 265, (2-benzylsulfonyl-2,6-diazaspiro[3.3]heptan-6-yl)-[6-(3-cyclopropyl-1,2,4-triazol-1-yl)-2-azaspiro[3.3]heptan-2-yl]methanone] — 2.3-fold higher, 27.5 nM
- CS(=O)(=O)c1ccc(COC2CN(C(=O)N3CC4(CC(n5cnc(C6CC6)n5)C4)C3)C2)c(F)c1 [Example 266, [6-(3-cyclopropyl-1,2,4-triazol-1-yl)-2-azaspiro[3.3]heptan-2-yl]-[3-[(2-fluoro-4-methylsulfonyl-phenyl)methoxy]azetidin-1-yl]methanone] — 2.4-fold higher, 29 nM
- O=C(N1CC2(CC(Nc3ccc(C(F)(F)F)nn3)C2)C1)N1CC2(CC(n3cnc(C4CC4)n3)C2)C1 [Example 267, [6-(3-cyclopropyl-1,2,4-triazol-1-yl)-2-azaspiro[3.3]heptan-2-yl]-[6-[[6-(trifluoromethyl)pyridazin-3-yl]amino]-2-azaspiro[3.3]heptan-2-yl]methanone] — 2.5-fold higher, 30.7 nM
- O=C(N1CC2(CC(n3cnc(C4CC4)n3)C2)C1)N1CC2(C1)CN(S(=O)(=O)c1cncc(C(F)(F)F)c1)C2 [Example 268, [6-(3-cyclopropyl-1,2,4-triazol-1-yl)-2-azaspiro[3.3]heptan-2-yl]-[2-[[5-(trifluoromethyl)-3-pyridyl]sulfonyl]-2,6-diazaspiro[3.3]heptan-6-yl]methanone] — 2.6-fold higher, 32.1 nM
- CC1(NS(=O)(=O)N2CC3(CN(C(=O)N4CC5(CC(n6cnc(C7CC7)n6)C5)C4)C3)C2)CC1 [Example 269, 6-[6-(3-cyclopropyl-1,2,4-triazol-1-yl)-2-azaspiro[3.3]heptane-2-carbonyl]-N-(1-methylcyclopropyl)-2,6-diazaspiro[3.3]heptane-2-sulfonamide] — 2.6-fold higher, 32.2 nM
